Source: PubChem BioAssay (NCI)
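Method: 48-hour compound exposure of cells in 96-well plates, five concentrations, linear interpolation of endpoints. Abbreviation: GI50, concentration required for 50% inhibition of growth. Definition used: TGI = concentration required for complete inhibition of growth.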

Tests used:
Experiment in all cases: DTP human tumour cell line panel, 48 h
UO-31 renal = tested on: UO-31 renal
MALME-3M melanoma = tested on: MALME-3M melanoma
786-0 renal = tested on: 786-0 renal
OVCAR-4 ovarian = tested on: OVCAR-4 ovarian
SK-OV-3 ovarian = tested on: SK-OV-3 ovarian
DU-145 prostate = tested on: DU-145 prostate
A549 NSCLC = tested on: A549 NSCLC
BT-549 breast = tested on: BT-549 breast
PC-3 prostate = tested on: PC-3 prostate
HOP-92 NSCLC = tested on: HOP-92 NSCLC
HOP-62 NSCLC = tested on: HOP-62 NSCLC
SN12C renal = tested on: SN12C renal
SR leukemia = tested on: SR leukemia
HCT-15 colon = tested on: HCT-15 colon
MDA-MB-468 breast = tested on: MDA-MB-468 breast
SK-MEL-5 melanoma = tested on: SK-MEL-5 melanoma
RPMI-8226 leukemia = tested on: RPMI-8226 leukemia
MCF7 breast = tested on: MCF7 breast
HL-60(TB) leukemia = tested on: HL-60(TB) leukemia
M14 melanoma = tested on: M14 melanoma
NCI-H23 lung = tested on: NCI-H23 lung
TK-10 renal = tested on: TK-10 renal
KM12 colon = tested on: KM12 colon
K-562 leukemia = tested on: K-562 leukemia
LOX IMVI melanoma = tested on: LOX IMVI melanoma
MDA-MB-231 breast = tested on: MDA-MB-231 breast
SF-295 CNS = tested on: SF-295 CNS
MDA-MB-435 = tested on: MDA-MB-435
CCRF-CEM leukemia = tested on: CCRF-CEM leukemia
HS 578T breast = tested on: HS 578T breast
U251 CNS = tested on: U251 CNS
T-47D breast = tested on: T-47D breast
MOLT-4 leukemia = tested on: MOLT-4 leukemia
SK-MEL-28 melanoma = tested on: SK-MEL-28 melanoma
HCT-116 colon = tested on: HCT-116 colon
IGROV1 ovarian = tested on: IGROV1 ovarian
RXF 393 renal = tested on: RXF 393 renal
NCI-H522 lung = tested on: NCI-H522 lung
SW-620 colon = tested on: SW-620 colon
NCI-H226 lung = tested on: NCI-H226 lung
SNB-19 CNS = tested on: SNB-19 CNS
UACC-62 melanoma = tested on: UACC-62 melanoma
COLO 205 colon = tested on: COLO 205 colon
EKVX NSCLC = tested on: EKVX NSCLC
SNB-75 CNS = tested on: SNB-75 CNS
OVCAR-3 ovarian = tested on: OVCAR-3 ovarian
ACHN renal = tested on: ACHN renal
OVCAR-8 ovarian = tested on: OVCAR-8 ovarian
SK-MEL-2 melanoma = tested on: SK-MEL-2 melanoma
UACC-257 melanoma = tested on: UACC-257 melanoma
HCC-2998 colon = tested on: HCC-2998 colon
A498 renal = tested on: A498 renal
NCI-H460 lung = tested on: NCI-H460 lung
SF-539 CNS = tested on: SF-539 CNS
OVCAR-5 ovarian = tested on: OVCAR-5 ovarian
HT29 colon = tested on: HT29 colon
CAKI-1 renal = tested on: CAKI-1 renal
SF-268 CNS = tested on: SF-268 CNS

C=C1CC[C@@H]2[C@]3(C)COC(c4cn[nH]c4-c4ccccc4)O[C@@H]3CC[C@@]2(C)[C@@H]1C/C=C1/C(=O)OCC1O (stereo partly specified)
GI50 (UO-31 renal): 11.5 µM | TGI (UO-31 renal): 28 µM | GI50 (MALME-3M melanoma): 13.2 µM | TGI (MALME-3M melanoma): 30.5 µM | GI50 (786-0 renal): 18.8 µM | TGI (786-0 renal): 43 µM | GI50 (OVCAR-4 ovarian): 15.2 µM | TGI (OVCAR-4 ovarian): 52 µM | GI50 (SK-OV-3 ovarian): 22 µM | TGI (SK-OV-3 ovarian): 63.5 µM | GI50 (DU-145 prostate): 13.8 µM | TGI (DU-145 prostate): 35.4 µM | GI50 (A549 NSCLC): 17.3 µM | TGI (A549 NSCLC): 51.8 µM | GI50 (BT-549 breast): 15.2 µM | TGI (BT-549 breast): 43.3 µM | GI50 (PC-3 prostate): 12.2 µM | TGI (PC-3 prostate): > 100 µM | GI50 (HOP-92 NSCLC): 9.14 µM | TGI (HOP-92 NSCLC): 30.6 µM | GI50 (HOP-62 NSCLC): 16.1 µM | TGI (HOP-62 NSCLC): 35.6 µM | GI50 (SN12C renal): 22 µM | TGI (SN12C renal): 70 µM | GI50 (SR leukemia): 21.2 µM | TGI (SR leukemia): > 100 µM | GI50 (HCT-15 colon): 13.2 µM | TGI (HCT-15 colon): 27.2 µM | GI50 (MDA-MB-468 breast): 9 µM | TGI (MDA-MB-468 breast): 32.6 µM | GI50 (SK-MEL-5 melanoma): 12.4 µM | TGI (SK-MEL-5 melanoma): 24.8 µM | GI50 (RPMI-8226 leukemia): 8.39 µM | TGI (RPMI-8226 leukemia): 93.8 µM | GI50 (MCF7 breast): 10.5 µM | TGI (MCF7 breast): 34.9 µM | GI50 (HL-60(TB) leukemia): 13.3 µM | TGI (HL-60(TB) leukemia): 67.5 µM | GI50 (M14 melanoma): 14.4 µM | TGI (M14 melanoma): 28.2 µM | GI50 (NCI-H23 lung): 13.6 µM | TGI (NCI-H23 lung): 26.5 µM | GI50 (TK-10 renal): 20.2 µM | TGI (TK-10 renal): 51.7 µM | GI50 (KM12 colon): 11.3 µM | TGI (KM12 colon): 54.9 µM | GI50 (K-562 leukemia): 12.8 µM | TGI (K-562 leukemia): > 100 µM | GI50 (LOX IMVI melanoma): 10.9 µM | TGI (LOX IMVI melanoma): 25 µM | GI50 (MDA-MB-231 breast): 15.8 µM | TGI (MDA-MB-231 breast): 32.8 µM | GI50 (SF-295 CNS): 15.4 µM | TGI (SF-295 CNS): 30.5 µM | GI50 (MDA-MB-435): 13.5 µM | TGI (MDA-MB-435): 29.8 µM | GI50 (CCRF-CEM leukemia): 4.83 µM | TGI (CCRF-CEM leukemia): 42.5 µM | GI50 (HS 578T breast): 9.81 µM | TGI (HS 578T breast): 54.7 µM | GI50 (U251 CNS): 14.3 µM | TGI (U251 CNS): 28.6 µM | GI50 (T-47D breast): 20.2 µM | TGI (T-47D breast): > 100 µM | GI50 (MOLT-4 leukemia): 3.83 µM | TGI (MOLT-4 leukemia): 54.5 µM | GI50 (SK-MEL-28 melanoma): 13.7 µM | TGI (SK-MEL-28 melanoma): 26.8 µM | GI50 (HCT-116 colon): 12.2 µM | TGI (HCT-116 colon): 32.2 µM | GI50 (IGROV1 ovarian): 17 µM | TGI (IGROV1 ovarian): 42.8 µM | GI50 (RXF 393 renal): 8.5 µM | TGI (RXF 393 renal): 21.7 µM | GI50 (NCI-H522 lung): 14.1 µM | TGI (NCI-H522 lung): 29.8 µM | GI50 (SW-620 colon): 14.4 µM | TGI (SW-620 colon): 33.3 µM | GI50 (NCI-H226 lung): 16.1 µM | TGI (NCI-H226 lung): 37.8 µM | GI50 (SNB-19 CNS): 15 µM | TGI (SNB-19 CNS): 28.5 µM | GI50 (UACC-62 melanoma): 13.5 µM | TGI (UACC-62 melanoma): 28.7 µM | GI50 (COLO 205 colon): 15 µM | TGI (COLO 205 colon): 28.2 µM | GI50 (EKVX NSCLC): 14.5 µM | TGI (EKVX NSCLC): 32.7 µM | GI50 (SNB-75 CNS): 10.4 µM | TGI (SNB-75 CNS): 35.1 µM | GI50 (OVCAR-3 ovarian): 11.1 µM | TGI (OVCAR-3 ovarian): 37.5 µM | GI50 (ACHN renal): 17.6 µM | TGI (ACHN renal): 69.1 µM | GI50 (OVCAR-8 ovarian): 18 µM | TGI (OVCAR-8 ovarian): 49.6 µM | GI50 (SK-MEL-2 melanoma): 14.8 µM | TGI (SK-MEL-2 melanoma): 28.7 µM | GI50 (UACC-257 melanoma): 15.6 µM | TGI (UACC-257 melanoma): 36.1 µM | GI50 (HCC-2998 colon): 15.8 µM | TGI (HCC-2998 colon): 29.3 µM | GI50 (A498 renal): 30.9 µM | TGI (A498 renal): > 100 µM | GI50 (NCI-H460 lung): 15.3 µM | TGI (NCI-H460 lung): 32.3 µM | GI50 (SF-539 CNS): 15.6 µM | TGI (SF-539 CNS): 30.3 µM | GI50 (OVCAR-5 ovarian): 19.2 µM | TGI (OVCAR-5 ovarian): 37.7 µM | GI50 (HT29 colon): 15.4 µM | TGI (HT29 colon): 32.7 µM | GI50 (CAKI-1 renal): 11.6 µM | TGI (CAKI-1 renal): 32.2 µM | GI50 (SF-268 CNS): 18.5 µM | TGI (SF-268 CNS): 75.4 µM
